The target of one assay is MET (human) (Homo sapiens, UniProt P08581). In words: MET (human) AlphaScreen kinase assay, Km of ATP. The note with it: AlphaScreen, Km of ATP; read-out: Met biochemical IC50. Type of assay: biochemical. Summed up:
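Human MET at lot-optimised concentration in 50 mM Tris pH 7.4 buffer with 1 mM DTT, compound at 1% DMSO final; enzyme starts the reaction, 60 min at RT.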
In general terms: Alpha assays give light when donor and acceptor beads are brought close together.

The next assay addresses RON (human) (Homo sapiens, UniProt Q04912). Briefly: RON (human) AlphaScreen kinase assay, Km of ATP. The format is biochemical. As to conditions: AlphaScreen, Km of ATP; read-out: RON biochemical IC50. Summed up: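 Reaction was started with enzyme and run 30 min at RT. PT66 donor/acceptor beads in an EDTA-containing Tris pH 7.5 buffer were then added, and the signal was read after 1 h.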

Some results are limits rather than exact numbers.

Among the data in patent US8022206B2 (OSI Pharmaceuticals, LLC, priority 2008, dated 2011) are IC50 values, retold here.

Chain of RON (human) (Q04912 25-1400): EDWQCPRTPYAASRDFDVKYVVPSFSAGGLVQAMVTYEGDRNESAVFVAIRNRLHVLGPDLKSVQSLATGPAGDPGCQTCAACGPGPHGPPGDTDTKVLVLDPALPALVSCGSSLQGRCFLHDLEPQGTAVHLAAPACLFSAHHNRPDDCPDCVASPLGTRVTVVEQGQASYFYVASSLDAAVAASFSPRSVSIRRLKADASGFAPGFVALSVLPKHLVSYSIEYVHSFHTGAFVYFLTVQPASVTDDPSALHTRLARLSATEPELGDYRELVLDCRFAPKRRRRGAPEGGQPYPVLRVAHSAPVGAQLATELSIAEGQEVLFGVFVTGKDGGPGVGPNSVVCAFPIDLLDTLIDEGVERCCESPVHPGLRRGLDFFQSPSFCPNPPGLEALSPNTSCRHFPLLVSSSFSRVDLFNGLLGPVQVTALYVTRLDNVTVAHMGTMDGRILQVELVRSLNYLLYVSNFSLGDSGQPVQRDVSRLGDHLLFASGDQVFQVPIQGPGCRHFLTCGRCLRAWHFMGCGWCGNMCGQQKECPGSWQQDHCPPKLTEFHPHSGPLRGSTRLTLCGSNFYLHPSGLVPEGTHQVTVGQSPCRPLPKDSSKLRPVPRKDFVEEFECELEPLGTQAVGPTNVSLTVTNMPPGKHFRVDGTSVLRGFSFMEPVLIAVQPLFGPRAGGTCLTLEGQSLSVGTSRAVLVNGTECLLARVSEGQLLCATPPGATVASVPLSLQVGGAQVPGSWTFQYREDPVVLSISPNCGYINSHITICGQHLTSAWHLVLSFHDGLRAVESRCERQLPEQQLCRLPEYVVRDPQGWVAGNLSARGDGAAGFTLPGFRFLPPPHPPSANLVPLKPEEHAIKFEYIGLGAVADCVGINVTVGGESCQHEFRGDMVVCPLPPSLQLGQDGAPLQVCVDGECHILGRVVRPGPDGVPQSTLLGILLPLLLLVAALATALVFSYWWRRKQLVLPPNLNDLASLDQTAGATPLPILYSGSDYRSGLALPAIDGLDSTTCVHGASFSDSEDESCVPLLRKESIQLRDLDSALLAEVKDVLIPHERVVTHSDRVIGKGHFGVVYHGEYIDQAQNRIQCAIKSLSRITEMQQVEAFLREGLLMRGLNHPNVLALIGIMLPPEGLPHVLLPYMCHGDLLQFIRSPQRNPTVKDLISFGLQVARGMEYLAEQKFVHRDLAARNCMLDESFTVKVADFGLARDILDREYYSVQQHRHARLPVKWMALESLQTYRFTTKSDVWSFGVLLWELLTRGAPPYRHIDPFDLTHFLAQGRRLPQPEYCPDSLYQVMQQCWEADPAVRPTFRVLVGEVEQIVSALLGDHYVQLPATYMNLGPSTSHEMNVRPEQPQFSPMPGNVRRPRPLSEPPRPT
Chain of MET (human) (P08581 25-1390): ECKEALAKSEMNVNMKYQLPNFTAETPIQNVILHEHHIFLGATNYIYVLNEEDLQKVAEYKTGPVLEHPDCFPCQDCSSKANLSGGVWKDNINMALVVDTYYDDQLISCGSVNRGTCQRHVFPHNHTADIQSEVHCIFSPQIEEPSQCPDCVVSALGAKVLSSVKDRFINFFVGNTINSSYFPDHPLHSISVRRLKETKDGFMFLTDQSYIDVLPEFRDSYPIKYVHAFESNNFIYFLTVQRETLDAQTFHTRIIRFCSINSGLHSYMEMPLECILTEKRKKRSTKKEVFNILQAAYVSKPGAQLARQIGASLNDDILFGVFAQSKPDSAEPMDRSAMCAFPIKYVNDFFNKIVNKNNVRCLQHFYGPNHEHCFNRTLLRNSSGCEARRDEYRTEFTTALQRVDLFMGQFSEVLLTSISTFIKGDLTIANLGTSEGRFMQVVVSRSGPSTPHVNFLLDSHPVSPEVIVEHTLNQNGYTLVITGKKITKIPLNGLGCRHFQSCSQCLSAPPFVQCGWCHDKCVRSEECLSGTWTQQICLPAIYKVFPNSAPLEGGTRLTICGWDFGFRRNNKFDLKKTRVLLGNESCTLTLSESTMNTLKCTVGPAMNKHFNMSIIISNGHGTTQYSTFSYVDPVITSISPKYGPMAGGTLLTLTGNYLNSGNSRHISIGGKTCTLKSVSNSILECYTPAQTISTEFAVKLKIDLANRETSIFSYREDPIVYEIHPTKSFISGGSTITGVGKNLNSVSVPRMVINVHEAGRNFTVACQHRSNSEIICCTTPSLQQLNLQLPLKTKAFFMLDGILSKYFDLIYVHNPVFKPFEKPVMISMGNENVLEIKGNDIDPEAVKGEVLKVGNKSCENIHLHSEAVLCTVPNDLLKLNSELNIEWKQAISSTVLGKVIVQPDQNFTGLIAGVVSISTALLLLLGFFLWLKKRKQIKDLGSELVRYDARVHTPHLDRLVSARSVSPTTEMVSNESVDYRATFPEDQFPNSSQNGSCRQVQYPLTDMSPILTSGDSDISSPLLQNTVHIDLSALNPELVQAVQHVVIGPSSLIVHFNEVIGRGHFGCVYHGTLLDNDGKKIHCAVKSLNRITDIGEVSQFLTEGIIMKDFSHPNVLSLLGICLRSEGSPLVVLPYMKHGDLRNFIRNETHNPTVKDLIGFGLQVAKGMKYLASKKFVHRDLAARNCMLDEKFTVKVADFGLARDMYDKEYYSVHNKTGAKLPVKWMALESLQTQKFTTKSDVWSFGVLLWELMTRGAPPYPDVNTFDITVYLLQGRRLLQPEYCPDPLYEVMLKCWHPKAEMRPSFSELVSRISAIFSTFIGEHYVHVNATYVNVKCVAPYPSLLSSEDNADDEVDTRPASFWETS

The IC50 is the point on the concentration scale where inhibition reaches its midpoint. Turning to `C#CCC(Oc1c(N)ncc2c(C3=CCN(C(N)=O)CC3)coc12)c1c(Cl)ccc(F)c1Cl` (stereo not shown) [Example 459, 4-(6-Amino-7-{[1-(2,6-dichloro-3-fluorophenyl)but-3-yn-1-yl]oxy}furo[3,2-c]pyridin-3-yl)-3,6-dihydropyridine-1(2H)-carboxamide], the figures for the 50% inhibitory concentration (IC50) at MET (human) and on RON (human) were less than 500 nM and 500 to 5000 nM, respectively.
On the same counts, the results for `C[C@@H](Oc1c(N)ncc2c(C3=CCN(C(=O)[C@H]4CCCN4)CC3)coc12)c1c(Cl)ccc(F)c1Cl` [Example 242, (4-{6-Amino-7-[(R)-1-(2,6-dichloro-3-fluorophenyl)ethoxy]-furo[3,2-c]pyridin-3-yl}-3,6-dihydro-2H-pyridin-1-yl)-(R)-pyrrolidin-2-ylmethanone] are less than 500 nM and less than 500 nM.
On the same counts, the results for `Nc1ncc2c(-c3cnn(C4CCNCC4)c3)coc2c1O[C@H](c1ccccc1)C(F)(F)F` [Example 392, 3-(1-Piperidin-4-yl-1H-pyrazol-4-yl)-7-((R)-2,2,2-trifluoro-1-phenylethoxy)furo[3,2-c]pyridin-6-ylamine] are less than 500 nM and 500 to 5000 nM.
On the same counts, the results for `C[C@@H](Oc1c(N)ncc2c(-c3ccc4cc[nH]c4c3)coc12)c1c(Cl)ccc(F)c1Cl` [Example 129, 7-[(R)-(2,6-Dichloro-3-fluorophenyl)ethoxy]-3-(1H-indol-6-yl)furo[3,2-c]pyridin-6-ylamine] are 500 to 5000 nM and 500 to 5000 nM.
As for `C[C@@H](Oc1c(N)ncc2c(-c3ccsc3)coc12)c1c(Cl)ccc(F)c1Cl` [Example 134, 7-[(R)-(2,6-Dichloro-3-fluorophenyl)ethoxy]-3-thiophen-3-ylfuro[3,2-c]pyridin-6-ylamine], the half-maximal inhibitory concentration (IC50) on MET (human) and on RON (human) was 500 to 5000 nM each time.
Regarding `C[C@@H](Oc1c(N)ncc2c(C3=CCN(C(N)=O)CC3)coc12)c1c(Cl)ccc(F)c1Cl` [Example 34, 4-{6-Amino-7-[(R)-1-(2,6-dichloro-3-fluorophenyl)ethoxy]-furo[3,2-c]pyridin-3-yl}-3,6-dihydro-2H-pyridine-1-carboxamide], the IC50 at MET (human) and on RON (human) was less than 500 nM in each case.
Regarding `C[C@@H](Oc1c(N)ncc2c(C(=O)NC3CCN(C)CC3)coc12)c1c(Cl)ccc(F)c1Cl` [Example 186, 6-Amino-7-[(R)-1-(2,6-dichloro-3-fluorophenyl)ethoxy]furo[3,2-c]pyridine-3-carboxylic acid (1-methylpiperidin-4-yl)amide], the IC50 was less than 500 nM at MET (human) and 500 to 5000 nM at RON (human).
On to `C[C@@H](Oc1c(N)ncc2c(C3=CCN(C(=O)C4(N)CC4)CC3)coc12)c1c(Cl)ccc(F)c1Cl` [Example 23, (1-Aminocyclopropyl)-(4-{6-amino-7-[(R)-1-(2,6-dichloro-3-fluorophenyl)-ethoxy]-furo[3,2-c]pyridin-3-yl}-3,6-dihydro-2H-pyridin-1-yl)-methanone], for which the IC50 on MET (human) and on RON (human) was 500 to 5000 nM throughout.
As to `C[C@@H](Oc1c(N)ncc2c(C3=CCN(C)CC3)coc12)c1c(Cl)ccc(F)c1Cl` [Example 37, 7-[(R)-1-(2,6-Dichloro-3-fluorophenyl)-ethoxy]-3-(1-methyl-1,2,3,6-tetrahydropyridin-4-yl)-furo[3,2-c]pyridin-6-ylamine], the half-inhibitory concentration (IC50) at MET (human) and at RON (human) was less than 500 nM throughout.
On to `C[C@@H](Oc1c(N)ncc2c(-c3ccc(C(=O)N4CCNCC4)cc3)coc12)c1c(Cl)ccc(F)c1Cl` [Example 106, (4-{6-Amino-7-[(R)-1-(2,6-dichloro-3-fluorophenyl)ethoxy]furo[3,2-c]pyridin-3-yl}phenyl)piperazin-1-ylmethanone], for which the half-maximal inhibitory concentration (IC50) at MET (human) and at RON (human) was less than 500 nM in each case.
With `N#CCc1ccccc1COc1c(N)ncc2c(-c3cnn(C4CCNCC4)c3)coc12` [Example 433, {2-[6-Amino-3-(1-piperidin-4-yl-1H-pyrazol-4-yl)furo[3,2-c]pyridin-7-yloxymethyl]phenyl}acetonitrile], the IC50 at MET (human) and on RON (human) was 500 to 5000 nM throughout.
